Experimental data taken from ChEMBL document CHEMBL1130318, “Inhibition of stromelysin-1 (MMP-3) by P1'-biphenylylethyl carboxyalkyl dipeptides” (J Med Chem, 1997).

Tests used:
Stromelysin-1 = Stromelysin-1 (Homo sapiens, UniProt P08254)
Description: Inhibition of human stromelysin-1 (Matrix metalloprotease-3)

[1] = target: 72 kDa type IV collagenase (Homo sapiens, UniProt P08253)
Description: Inhibition of gelatinase A (Matrix metalloprotease-2)

Mus musculus = experiment: Effective dose for inhibition of MMP-3 mediated degradation of radiolabeled transferrin in the mouse pleural cavity (PLCAV) after 60 mpk oral dose of inhibitor.; type: functional
[2] = Clearance was measured in rat after administration of compound 20 mg/kg intravenously; type: ADME, organism-based; set-up: dose 20 mg/kg, route intravenous; details: in vivo, iv
[3] = Clearance was measured in mouse after administration of compound 20 mg/kg intravenously; type: ADME, organism-based; set-up: dose 20 mg/kg, route intravenous; details: in vivo, iv
[4] = Percent oral bioavailability was measured in rat after administration of compound 20 mg/kg perorally; type: ADME, organism-based; details: in vivo
[5] = Percent oral bioavailability was measured in mouse after administration of compound 20 mg/kg perorally; type: ADME, organism-based; details: in vivo
[6] = Volume distribution was measured in mouse after administration of compound 20 mg/kg intravenously; type: ADME, organism-based; set-up: dose 20 mg/kg, route intravenous; details: in vivo, iv, read-out: Vdss
[7] = Volume distribution was measured in rat after administration of compound 20 mg/kg intravenously; type: ADME, organism-based; set-up: dose 20 mg/kg, route intravenous; details: in vivo, iv, read-out: Vdss
[8] = Plasma half-life was measured in mouse after administration of compound 20 mg/kg intravenously; type: ADME, organism-based; set-up: dose 20 mg/kg, route intravenous; details: iv
[9] = Plasma half-life was measured in rat after administration of compound 20 mg/kg intravenously; type: ADME, organism-based; set-up: dose 20 mg/kg, route intravenous; details: iv
[10] = Clearance was measured in rabbit after administration of compound 12 mg/kg intravenously; details: in vivo, iv
[11] = Plasma half-life was measured in rabbit after administration of compound 12 mg/kg intravenously; details: iv
[12] = Volume distribution was measured in rabbit after administration of compound 12 mg/kg intravenously; details: in vivo, iv, read-out: Vdss

Sequence of Stromelysin-1 (P08254 whole entry): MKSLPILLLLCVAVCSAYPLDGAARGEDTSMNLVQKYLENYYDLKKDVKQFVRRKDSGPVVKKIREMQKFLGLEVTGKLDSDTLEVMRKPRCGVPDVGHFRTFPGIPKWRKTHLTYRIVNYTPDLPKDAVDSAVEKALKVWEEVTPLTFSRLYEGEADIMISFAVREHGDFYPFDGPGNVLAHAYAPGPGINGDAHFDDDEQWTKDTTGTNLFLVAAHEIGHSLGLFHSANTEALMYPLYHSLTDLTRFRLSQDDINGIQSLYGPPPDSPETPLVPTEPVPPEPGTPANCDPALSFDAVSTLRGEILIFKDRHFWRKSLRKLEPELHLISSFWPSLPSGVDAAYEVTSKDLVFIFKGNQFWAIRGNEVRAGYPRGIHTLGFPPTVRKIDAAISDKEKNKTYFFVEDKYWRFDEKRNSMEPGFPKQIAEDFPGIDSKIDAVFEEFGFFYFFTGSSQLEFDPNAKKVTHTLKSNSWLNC
Sequence of 72 kDa type IV collagenase (P08253 whole entry): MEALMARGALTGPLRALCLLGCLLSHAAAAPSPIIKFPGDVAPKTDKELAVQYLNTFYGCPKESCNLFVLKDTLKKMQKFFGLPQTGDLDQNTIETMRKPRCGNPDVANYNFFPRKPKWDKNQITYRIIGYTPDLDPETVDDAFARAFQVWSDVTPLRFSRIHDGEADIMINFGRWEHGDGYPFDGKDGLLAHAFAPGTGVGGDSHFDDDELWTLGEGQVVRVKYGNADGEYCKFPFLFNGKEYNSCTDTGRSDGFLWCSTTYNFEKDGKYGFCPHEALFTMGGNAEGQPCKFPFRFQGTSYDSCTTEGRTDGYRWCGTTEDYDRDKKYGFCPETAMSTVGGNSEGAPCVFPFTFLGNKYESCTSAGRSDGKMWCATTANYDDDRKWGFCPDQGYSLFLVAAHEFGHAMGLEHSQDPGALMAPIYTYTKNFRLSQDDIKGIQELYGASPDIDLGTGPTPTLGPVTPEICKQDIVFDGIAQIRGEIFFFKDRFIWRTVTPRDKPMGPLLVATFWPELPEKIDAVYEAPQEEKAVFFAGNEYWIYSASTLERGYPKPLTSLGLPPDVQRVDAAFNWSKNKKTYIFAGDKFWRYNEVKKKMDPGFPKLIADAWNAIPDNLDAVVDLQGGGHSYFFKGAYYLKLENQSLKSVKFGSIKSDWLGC

SMILES: CCCC[C@@H](C[C@@H](CCc1ccc(-c2ccc(-c3ccccc3)cc2)cc1)C(=O)N[C@H](C(=O)NC)C(C)(C)C)C(=O)O
- Ki (Stromelysin-1): 39 nM
- Ki [1]: 84 nM

SMILES: CCCC[C@@H](C[C@@H](CCc1ccc(OCc2ccccc2)cc1)C(=O)N[C@H](C(=O)NC)C(C)(C)C)C(=O)O
- Ki (Stromelysin-1): 74 nM
- Ki [1]: 210 nM

SMILES: CCCC[C@@H](C[C@@H](CCc1ccc(Cc2ccccc2)cc1)C(=O)N[C@H](C(=O)Nc1ccccc1)C(C)(C)C)C(=O)O
- Ki (Stromelysin-1): 1400 nM
- Ki [1]: 16 nM

SMILES: CCCC[C@@H](C[C@@H](CCc1ccc(-c2ccc(-c3ncc[nH]3)cc2)cc1)C(=O)N[C@H](C(=O)NC)C(C)(C)C)C(=O)O
- Ki (Stromelysin-1): 25 nM
- Ki [1]: 94 nM

SMILES: CCCC[C@@H](C[C@@H](CCc1ccc(CCC)cc1)C(=O)N[C@H](C(=O)NC)C(C)(C)C)C(=O)O
- Ki (Stromelysin-1): 140 nM
- Ki [1]: 47 nM

SMILES: CC(C)C[C@H](NC(=O)[C@H](CCc1ccc(-c2ccccc2)cc1)C[C@H](C)C(=O)O)C(=O)Nc1ccccc1
- Ki (Stromelysin-1): 82 nM

SMILES: CCCC[C@@H](C[C@@H](CCc1ccc(-c2cccc(C(F)(F)F)c2)cc1)C(=O)N[C@H](C(=O)NC)C(C)(C)C)C(=O)O
- Ki (Stromelysin-1): 1100 nM
- Ki [1]: 3600 nM

SMILES: CCCC[C@@H](C[C@@H](CCc1ccc(-c2ccc(C#N)cc2)cc1)C(=O)N[C@H](C(=O)NC)C(C)(C)C)C(=O)O
- Ki (Stromelysin-1): 9 nM
- Ki [1]: 14 nM

SMILES: CCCC[C@@H](C[C@@H](CCc1ccc(-c2ccc(C(=O)O)cc2)cc1)C(=O)N[C@H](C(=O)NC)C(C)(C)C)C(=O)O
- Ki (Stromelysin-1): 690 nM
- Ki [1]: 580 nM

SMILES: CC(C)C[C@H](NC(=O)[C@H](CCc1ccc(-c2ccc(F)cc2)cc1)C[C@H](C)C(=O)O)C(=O)Nc1ccccc1
- Ki (Stromelysin-1): 38 nM

SMILES: CCCC[C@@H](C[C@@H](CCc1ccc(-c2ccc(F)cc2)cc1)C(=O)N[C@H](C(=O)Nc1ccccc1)C(C)(C)C)C(=O)O
- Ki (Stromelysin-1): 4 nM
- Ki [1]: 150 nM

SMILES: CCCC[C@@H](C[C@@H](CCc1ccc(-c2ccc(F)c(Cl)c2)cc1)C(=O)N[C@H](C(=O)NC)C(C)(C)C)C(=O)O
- Ki (Stromelysin-1): 19 nM
- Ki [1]: 80 nM

SMILES: CCCC[C@@H](C[C@@H](CCc1ccc(-c2ccc([S+](C)[O-])cc2)cc1)C(=O)N[C@H](C(=O)NC)C(C)(C)C)C(=O)O (some centres not stated)
- Ki (Stromelysin-1): 52 nM
- Ki [1]: 30 nM

SMILES: CCCC[C@@H](C[C@@H](CCc1cccc(-c2ccccc2)c1)C(=O)N[C@H](C(=O)NC)C(C)(C)C)C(=O)O
- Ki (Stromelysin-1): 1500 nM
- Ki [1]: 2400 nM

SMILES: CCCc1ccc(CC[C@H](N[C@H](C)C(=O)O)C(=O)N[C@@H](CC(C)C)C(=O)Nc2ccccc2)cc1
- ED50 (Mus musculus): 65 mg/kg

SMILES: CCCC[C@@H](C[C@@H](CCc1ccc(-c2ccc(F)cc2)cc1)C(=O)N[C@H](C(=O)NC)C(C)(C)C)C(=O)O
- clearance [2]: 1.3 mL/min/kg
- clearance [3]: 1.1 mL/min/kg
- bioavailability [4]: 60%
- bioavailability [5]: 78%
- Vd [6]: 0.2 L/kg
- Vd [7]: 0.32 L/kg
- half-life [8]: 2.7 h
- half-life [9]: 4.4 h
- Ki (Stromelysin-1): 10 nM
- Ki [1]: 17 nM
- clearance [10]: 7.6 mL/min/kg
- half-life [11]: 0.9 h
- Vd [12]: 0.2 L/kg

SMILES: CCCC[C@@H](C[C@@H](CCc1ccc(-c2ccc(C(F)(F)F)cc2)cc1)C(=O)N[C@H](C(=O)NC)C(C)(C)C)C(=O)O
- Ki (Stromelysin-1): 37 nM
- Ki [1]: 39 nM

SMILES: CCCC[C@@H](C[C@@H](CCc1ccc(-c2ccc(C(=O)OC)cc2)cc1)C(=O)N[C@H](C(=O)NC)C(C)(C)C)C(=O)O
- Ki (Stromelysin-1): 31 nM
- Ki [1]: 32 nM

SMILES: CCCC[C@@H](C[C@@H](CCc1ccc(-c2cccc(F)c2)cc1)C(=O)N[C@H](C(=O)NC)C(C)(C)C)C(=O)O
- Ki (Stromelysin-1): 21 nM
- Ki [1]: 48 nM

SMILES: CCCC[C@@H](C[C@@H](CCc1ccc(-c2ccc(SC)cc2)cc1)C(=O)N[C@H](C(=O)NC)C(C)(C)C)C(=O)O
- Ki (Stromelysin-1): 5 nM
- Ki [1]: 13 nM

SMILES: CCCC[C@@H](C[C@@H](CCc1ccc(-c2cccc(N)c2)cc1)C(=O)N[C@H](C(=O)Nc1ccccc1)C(C)(C)C)C(=O)O
- Ki (Stromelysin-1): 27 nM
- Ki [1]: 280 nM

SMILES: CCCC[C@@H](C[C@@H](CCc1ccc(-c2ccc(-c3nnn[nH]3)cc2)cc1)C(=O)N[C@H](C(=O)NC)C(C)(C)C)C(=O)O
- Ki (Stromelysin-1): 350 nM
- Ki [1]: 1800 nM

SMILES: CCCC[C@@H](C[C@@H](CCc1ccc(-c2cccc3ccccc23)cc1)C(=O)N[C@H](C(=O)NC)C(C)(C)C)C(=O)O
- Ki (Stromelysin-1): 2000 nM
- Ki [1]: 6900 nM

SMILES: CCCC[C@@H](C[C@@H](CCc1ccc(-c2ccc(OC)cc2)cc1)C(=O)N[C@H](C(=O)NC)C(C)(C)C)C(=O)O
- Ki (Stromelysin-1): 13 nM
- Ki [1]: 21 nM

SMILES: CCCC[C@@H](C[C@@H](CCc1ccc(CCc2ccccc2)cc1)C(=O)N[C@H](C(=O)NC)C(C)(C)C)C(=O)O
- Ki (Stromelysin-1): 49 nM
- Ki [1]: 380 nM

SMILES: CCCC[C@@H](C[C@@H](CCc1ccc(/C=C/c2ccccc2)cc1)C(=O)N[C@H](C(=O)NC)C(C)(C)C)C(=O)O
- Ki (Stromelysin-1): 65 nM
- Ki [1]: 760 nM

SMILES: CCCC[C@@H](C[C@@H](CCc1ccccc1)C(=O)N[C@H](C(=O)NC)C(C)(C)C)C(=O)O
- Ki (Stromelysin-1): 3800 nM
- Ki [1]: 1500 nM

SMILES: CCCC[C@@H](C[C@@H](CCc1cccc(-c2ccsc2)c1)C(=O)N[C@H](C(=O)NC)C(C)(C)C)C(=O)O
- Ki (Stromelysin-1): 15 nM
- Ki [1]: 21 nM

SMILES: CCCC[C@@H](C[C@@H](CCc1ccc(-c2ccc3ccccc3c2)cc1)C(=O)N[C@H](C(=O)NC)C(C)(C)C)C(=O)O
- Ki (Stromelysin-1): 120 nM

SMILES: CCCC[C@@H](C[C@@H](CCc1ccc(-c2ccc(C(=O)NC)cc2)cc1)C(=O)N[C@H](C(=O)NC)C(C)(C)C)C(=O)O
- Ki (Stromelysin-1): 49 nM
- Ki [1]: 34 nM

SMILES: CCCC[C@@H](C[C@@H](CCc1ccc(-c2c(C)cccc2C)cc1)C(=O)N[C@H](C(=O)NC)C(C)(C)C)C(=O)O
- Ki (Stromelysin-1): 1200 nM
- Ki [1]: 1300 nM

SMILES: CCCC[C@@H](C[C@@H](CCc1ccc(-c2ccc(F)cc2)cc1)C(=O)N[C@H](C(=O)Nc1ccncc1)C(C)(C)C)C(=O)O
- Ki (Stromelysin-1): 2 nM
- Ki [1]: 25 nM

SMILES: CCCc1ccc(CC[C@H](C[C@H](C)C(=O)O)C(=O)N[C@@H](CC(C)C)C(=O)Nc2ccccc2)cc1
- ED50 (Mus musculus): 32 mg/kg

SMILES: CCCC[C@@H](C[C@@H](CCc1ccc(-c2ccccc2S(N)(=O)=O)cc1)C(=O)N[C@H](C(=O)NC)C(C)(C)C)C(=O)O
- Ki (Stromelysin-1): 9400 nM

SMILES: CCCC[C@@H](C[C@@H](CCc1ccc(-c2ccc(Cl)cc2Cl)cc1)C(=O)N[C@H](C(=O)NC)C(C)(C)C)C(=O)O
- Ki (Stromelysin-1): 12 nM
- Ki [1]: 100 nM

SMILES: CCCC[C@@H](C[C@@H](CCc1ccc(-c2ccc(C=O)cc2)cc1)C(=O)N[C@H](C(=O)NC)C(C)(C)C)C(=O)O
- Ki (Stromelysin-1): 15 nM
- Ki [1]: 16 nM

SMILES: CCCC[C@@H](C[C@@H](CCc1ccc(C2CCCO2)cc1)C(=O)N[C@H](C(=O)NC)C(C)(C)C)C(=O)O (some centres not stated)
- Ki (Stromelysin-1): 1400 nM
- Ki [1]: 810 nM

SMILES: CC(C)C[C@H](NC(=O)[C@H](CCc1ccccc1)N[C@H](C)C(=O)O)C(=O)Nc1ccccc1 [L-696418]
- ED50 (Mus musculus): > 100 mg/kg

SMILES: CCCC[C@@H](C[C@@H](CCc1ccc(-c2cc3ccccc3[nH]2)cc1)C(=O)N[C@H](C(=O)NC)C(C)(C)C)C(=O)O
- Ki (Stromelysin-1): 12 nM
- Ki [1]: 49 nM

SMILES: CCCC[C@@H](C[C@@H](CCc1ccc(-c2ccccc2F)cc1)C(=O)N[C@H](C(=O)NC)C(C)(C)C)C(=O)O
- Ki (Stromelysin-1): 11 nM
- Ki [1]: 61 nM

SMILES: CCCC[C@@H](C[C@@H](CCc1ccc(-c2ccccc2S(=O)(=O)NC(C)(C)C)cc1)C(=O)N[C@H](C(=O)NC)C(C)(C)C)C(=O)O
- Ki (Stromelysin-1): 10 nM
- Ki [1]: 17 nM

SMILES: CCCC[C@@H](C[C@@H](CCc1ccc(C2CCCCCC2)cc1)C(=O)N[C@H](C(=O)NC)C(C)(C)C)C(=O)O
- Ki (Stromelysin-1): 95 nM
- Ki [1]: 1900 nM

SMILES: CCCC[C@@H](C[C@@H](CCc1ccc(CCC)cc1)C(=O)N[C@H](C(=O)Nc1ccncc1)C(C)(C)C)C(=O)O
- Ki (Stromelysin-1): 11 nM
- Ki [1]: 22 nM

SMILES: CCCC[C@@H](C[C@@H](CCc1ccc(-c2ccc(S(C)(=O)=O)cc2)cc1)C(=O)N[C@H](C(=O)NC)C(C)(C)C)C(=O)O
- Ki (Stromelysin-1): 21 nM
- Ki [1]: 19 nM

SMILES: CCCC[C@@H](C[C@@H](CCc1ccc(-c2ccc(C(=O)N(C)C)cc2)cc1)C(=O)N[C@H](C(=O)NC)C(C)(C)C)C(=O)O
- Ki (Stromelysin-1): 40 nM
- Ki [1]: 50 nM

SMILES: CCCC[C@@H](C[C@@H](CCc1ccc(-c2ccc(Cl)cc2)cc1)C(=O)N[C@H](C(=O)NC)C(C)(C)C)C(=O)O
- Ki (Stromelysin-1): 13 nM
- Ki [1]: 25 nM

SMILES: CCCC[C@@H](C[C@@H](CCc1ccc(-c2ccc(Br)cc2)cc1)C(=O)N[C@H](C(=O)NC)C(C)(C)C)C(=O)O
- Ki (Stromelysin-1): 11 nM
- Ki [1]: 17 nM

SMILES: CCCC[C@@H](C[C@@H](CCc1ccc(-c2ccc(C(N)=O)cc2)cc1)C(=O)N[C@H](C(=O)NC)C(C)(C)C)C(=O)O
- Ki (Stromelysin-1): 24 nM
- Ki [1]: 38 nM

SMILES: CCCC[C@@H](C[C@@H](CCc1ccc(-c2cc(Cl)cc(Cl)c2)cc1)C(=O)N[C@H](C(=O)NC)C(C)(C)C)C(=O)O
- Ki (Stromelysin-1): 1500 nM
- Ki [1]: 1600 nM
